Data set [1] concerns the target T1, Calcitonin gene-related peptide 1 (Homo sapiens, UniProt P06881).
T1 sequence (P06881 whole entry): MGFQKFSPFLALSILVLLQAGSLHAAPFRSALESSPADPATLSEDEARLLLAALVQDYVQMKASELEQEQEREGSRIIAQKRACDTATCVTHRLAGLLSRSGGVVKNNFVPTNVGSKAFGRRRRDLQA
The data set is described as follows: Inhibition of CGRP (unknown origin).

In data set [2] the target is T2, Dipeptidyl peptidase 4 (Homo sapiens, UniProt P27487). Nature of the data set: Inhibition of human DPP4.
Data set [3] concerns the target T3, Cyclin-dependent kinase 2 (Homo sapiens, UniProt P24941). Nature of the data set: Inhibition of human CDK2 at 10 uM.
The target of data set [4] is T3, Cyclin-dependent kinase 2. The data set is described as follows: Inhibition of CDK2 (unknown origin). The following applies: concentration not given here.
A short description of data set [5]: Antiproliferative activity against human NCI cells assessed as reduction in cell viability at 100 uM by MTT assay. It is filed as functional. The following applies: read-out: GI.
The target of data set [6] is T4, Amine oxidase [flavin-containing] B (Homo sapiens, UniProt P27338).
T4 sequence (P27338 whole entry): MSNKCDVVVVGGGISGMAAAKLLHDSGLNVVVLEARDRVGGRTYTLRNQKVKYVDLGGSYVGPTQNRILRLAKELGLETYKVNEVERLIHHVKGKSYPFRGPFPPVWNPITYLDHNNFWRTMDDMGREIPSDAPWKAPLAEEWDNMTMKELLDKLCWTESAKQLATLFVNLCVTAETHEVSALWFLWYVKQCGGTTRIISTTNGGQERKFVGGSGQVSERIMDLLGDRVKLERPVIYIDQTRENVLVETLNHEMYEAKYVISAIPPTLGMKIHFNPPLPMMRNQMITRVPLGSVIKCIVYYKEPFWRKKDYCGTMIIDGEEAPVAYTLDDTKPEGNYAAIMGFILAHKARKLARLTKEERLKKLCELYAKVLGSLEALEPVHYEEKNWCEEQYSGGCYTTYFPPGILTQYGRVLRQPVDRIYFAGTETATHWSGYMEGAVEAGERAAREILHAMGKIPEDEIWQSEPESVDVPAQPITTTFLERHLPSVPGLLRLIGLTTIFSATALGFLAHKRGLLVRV
The data set is described as follows: Inhibition of MAO-B (unknown origin).

Data set [7] concerns Entamoeba histolytica. The data set is described as follows: Antiparasitic activity against Entamoeba histolytica HM1:1MSS assessed as parasitic growth inhibition by microdilution method. Format: functional, organism-based. (Broth dilution looks for growth in wells or tubes with falling amounts of substance.)
Data set [8] can be described thus: Inhibition of urease (unknown origin) measured after 20 mins.
The subject of data set [9] is A549. Nature of the data set: Cytotoxicity against human A549 cells assessed as reduction in cell viability at 100 uM by MTT assay. It is filed as functional, cell-based. In general terms: Formazan colour is commonly taken as a measure of viable cells.
Data set [10] relates to MDA-MB-231. The data set is described as follows: Cytotoxicity against human MDA-MB-231 cells assessed as reduction in cell viability at 100 uM by MTT assay. It is filed as functional, cell-based.
Data set [11] has as its target T5, Glucose-dependent insulinotropic receptor (Homo sapiens, UniProt Q8TDV5).
T5 sequence (Q8TDV5 whole entry): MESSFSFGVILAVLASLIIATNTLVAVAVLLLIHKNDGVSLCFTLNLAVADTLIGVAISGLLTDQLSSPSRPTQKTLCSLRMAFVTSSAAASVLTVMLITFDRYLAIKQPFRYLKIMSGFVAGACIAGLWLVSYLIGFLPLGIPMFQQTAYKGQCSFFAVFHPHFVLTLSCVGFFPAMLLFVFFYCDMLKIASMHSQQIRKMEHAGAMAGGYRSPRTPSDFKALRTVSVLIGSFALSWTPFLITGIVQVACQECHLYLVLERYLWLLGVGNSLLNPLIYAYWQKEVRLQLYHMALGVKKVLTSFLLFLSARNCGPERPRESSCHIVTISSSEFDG
Nature of the data set: Inhibition of GPR119 (unknown origin) at 10 uM.

For data set [12], the target named is T6, Tyrosinase (Homo sapiens, UniProt P14679).
T6 sequence (P14679 whole entry): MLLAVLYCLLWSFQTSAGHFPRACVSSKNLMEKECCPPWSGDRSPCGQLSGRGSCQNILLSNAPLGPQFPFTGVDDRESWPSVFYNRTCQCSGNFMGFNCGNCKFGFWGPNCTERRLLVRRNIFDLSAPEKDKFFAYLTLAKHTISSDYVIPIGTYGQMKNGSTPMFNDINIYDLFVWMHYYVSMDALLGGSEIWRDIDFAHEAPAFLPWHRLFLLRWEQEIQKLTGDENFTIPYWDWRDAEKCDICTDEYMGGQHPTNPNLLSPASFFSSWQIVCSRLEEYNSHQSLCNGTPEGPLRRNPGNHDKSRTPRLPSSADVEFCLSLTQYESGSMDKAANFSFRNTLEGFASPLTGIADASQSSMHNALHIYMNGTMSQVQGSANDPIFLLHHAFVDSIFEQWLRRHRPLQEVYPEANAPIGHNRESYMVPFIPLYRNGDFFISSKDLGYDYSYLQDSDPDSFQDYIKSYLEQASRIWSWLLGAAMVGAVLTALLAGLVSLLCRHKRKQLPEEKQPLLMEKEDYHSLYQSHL
The data set is described as follows: Inhibition of tyrosinase (unknown origin) incubated for 20 mins.

Data set [13] has as its target T7, Purine nucleoside phosphorylase (Homo sapiens, UniProt P00491).
T7 sequence (P00491 whole entry): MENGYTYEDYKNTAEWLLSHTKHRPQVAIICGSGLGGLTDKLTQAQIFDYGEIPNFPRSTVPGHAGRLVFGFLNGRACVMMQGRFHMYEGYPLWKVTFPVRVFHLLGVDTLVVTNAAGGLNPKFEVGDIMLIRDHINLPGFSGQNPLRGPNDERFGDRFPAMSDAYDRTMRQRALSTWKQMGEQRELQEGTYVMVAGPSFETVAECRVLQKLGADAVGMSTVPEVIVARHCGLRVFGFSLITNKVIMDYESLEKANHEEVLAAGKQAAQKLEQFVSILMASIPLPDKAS
Nature of the data set: Inhibition of PNP (unknown origin) expressed in Escherichia coli.

Data set [14] can be described thus: Oral bioavailability in rhesus monkey at 21 mg/kg. The following applies: in vivo. It is filed as ADME, organism-based, Macaca mulatta.
Data set [15] addresses GABA-A receptor; anion channel. The data set is described as follows: In vivo receptor occupancy at GABAA receptor in po dosed Sprague-Dawley rat assessed as plasma concentration causing 50% reduction at 0.39 mg/kg measured after 48 hrs by LC/MS method. It is filed as functional, organism-based.
Data set [16] in a line: Plasma protein binding in rhesus monkey. Format: ADME, cell-free. As to conditions: Macaca mulatta.
Data set [17] in a line: Half life in Sprague-Dawley rat at 1 mg/kg. Format: ADME, organism-based. The following applies: in vivo.
Data set [18] is described as follows: Half life in dog at 1 mg/kg. Format: ADME, organism-based, Canis lupus familiaris. The following applies: in vivo.
Data set [19] can be described thus: Half life in rhesus monkey at 1 mg/kg, iv. It is filed as ADME, organism-based, Macaca mulatta. As to conditions: in vivo.
The nature of data set [20]: Half life in human. Format: ADME.
Data set [21] concerns the target T2, Dipeptidyl peptidase 4. Nature of the data set: Inhibition of DPP4 (unknown origin).
For data set [22], the system named is A549. Nature of the data set: Antiproliferative activity against human A549 cells. Format: functional, cell-based.
In data set [23] the target is T8, Tyrosinase (Homo sapiens) (UniProt P14679).
T8 sequence (whole entry): T6 sequence (P14679 whole entry)
The data set is described as follows: Inhibition of tyrosinase (unknown origin) relative to control. As to conditions: concentration not given here.

Data set [24] concerns the target T8, Tyrosinase (Homo sapiens). The data set is described as follows: Inhibition of tyrosinase (unknown origin) assessed as enzyme residual activity at 0.07 mg/ml relative to control; values are per cent of control.

The structures appear in SMILES notation. Converted amounts (≈) assume the structure as drawn.

T2 sequence (P27487 whole entry): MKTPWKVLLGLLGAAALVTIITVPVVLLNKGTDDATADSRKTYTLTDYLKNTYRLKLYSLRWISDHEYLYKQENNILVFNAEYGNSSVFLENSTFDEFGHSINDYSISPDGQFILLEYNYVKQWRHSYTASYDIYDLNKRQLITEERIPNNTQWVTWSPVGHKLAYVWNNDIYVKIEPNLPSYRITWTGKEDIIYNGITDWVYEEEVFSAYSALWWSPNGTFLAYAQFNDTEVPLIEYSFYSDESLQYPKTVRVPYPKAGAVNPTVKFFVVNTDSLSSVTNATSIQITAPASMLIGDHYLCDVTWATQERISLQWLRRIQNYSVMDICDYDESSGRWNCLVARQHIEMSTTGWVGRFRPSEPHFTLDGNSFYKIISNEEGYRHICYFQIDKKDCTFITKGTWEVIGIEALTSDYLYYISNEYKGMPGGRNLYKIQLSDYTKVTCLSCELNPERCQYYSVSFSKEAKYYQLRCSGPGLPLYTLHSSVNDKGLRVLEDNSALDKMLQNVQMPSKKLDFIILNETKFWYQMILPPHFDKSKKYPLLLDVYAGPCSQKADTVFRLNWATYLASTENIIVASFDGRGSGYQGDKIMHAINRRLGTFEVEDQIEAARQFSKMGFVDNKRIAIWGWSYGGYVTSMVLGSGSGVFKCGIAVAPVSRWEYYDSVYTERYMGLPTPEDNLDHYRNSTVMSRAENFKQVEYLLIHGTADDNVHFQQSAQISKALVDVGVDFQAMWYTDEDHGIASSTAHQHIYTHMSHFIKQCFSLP

Take `CN(C)CCCNc1nc(N)nc2cc(-c3ccccc3)nn12`: the half-inhibitory concentration (IC50) (usually the point on the concentration scale where inhibition reaches its midpoint) in data set [1] stood at 52.2 µM.
Molecule `N/C(=N\O)c1cnn2c(=O)c([N+](=O)[O-])n[nH]c12` showed an IC50 in [2] of 63.6 µM.
In data set [3], `CCOC(=O)c1cnn2c(-c3ccc(Cl)cc3)nc(NCc3ccccc3)nc12` came in with an IC50 of 1.85 µM. The inhibition (usually the drop in the measured response relative to a control, in per cent) in data set [4] amounted to 82.4%. Moreover, the inhibition of growth at 100 µM in data set [5] is 41.8%.
Turning to `CCOC(=O)c1cnn2c(=O)c([N+](=O)[O-])n[nH]c12`, in data set [2], the IC50 was 620 µM.
In turn, `CCSc1nc(-c2ccc(C)cc2)n2nc(C)cc2n1` gave an IC50 in [6] of 24.5 µM.
Regarding `Cc1nnc2n(NC(=S)NC3CCCCC3)c(C)nnc1-2`, in data set [7], the IC50 is 0.81 µM.
In the case of `CCOc1ccc(S(=O)(=O)N[C@H](CO)CC(C)C)cc1-c1nnc2c(n1)c(C)nn2C`, the IC50 in [8] is 0.042 µM.
In [3], `O=C(NCCc1ccccc1)c1cnn2c(-c3ccc(Cl)cc3)nc(NCCc3ccccc3)nc12` showed an IC50 of 2.09 µM. Besides, in data set [4], the inhibition amounted to 82%. Besides, the inhibition of growth at 100 µM in [5] was determined as 33.3%.
On to `O=c1[nH]c(=O)n([C@H]2C[C@H](O)[C@@H](CO)O2)cc1F` [FLOXURIDINE], for which the IC50 in data set [9] was 5.8 µM; in data set [10], 38 µM.
Regarding `Nc1nc(Nc2ccc(F)cc2)n2nc(-c3ccccc3)cc2n1`, the IC50 in [11] was found to be 18.4 µM; in data set [1], 51.2 µM.
`CCOc1ccc(S(=O)(=O)N[C@@H](CO)CC(C)C)cc1-c1nnc2c(n1)c(C)nn2C` showed an IC50 in data set [12] of 27.9 µM.
As for `CSC1=NNC2NN=C(C)C2=N1` (centres undefined), the IC50 in data set [13] came to 40 µM.
Regarding `COCC(COC)Nc1nc(C)nc2c(-c3ccc(Cl)cc3Cl)c(C)nn12`, in [14], the bioavailability (commonly dose-corrected exposure relative to a reference, in per cent) stood at 50%.
As for `NC(N)=S` [THIOUREA], it took 20.9 µM to reach half-maximal inhibition in [8] (IC50).
The same measure, in the same setting: as for `CCOc1ccc(S(=O)(=O)N[C@@H](C)CO)cc1-c1nnc2c(n1)c(C)nn2C`, the figure is 0.037 µM.
With `Cc1cc(-c2nncc3c(C(C)(C)C)c(OCc4ncnn4C)nn23)no1`, the EC50 – broadly, the concentration needed to bring the measured effect to its halfway point – in data set [15] was 0.0407 µM; in data set [16], 0.021 µg/mL (≈ 0.057 µM). For the same molecule, the half-life (usually how long it takes for the measured level to halve) in data set [17] is 30 min; in [18], 30 min; in [19], 18 min; in data set [20], 210 min.
`CCOC(=O)c1n[nH]c2c(C(=O)OCC)cnn2c1=O`: the IC50 in data set [21] turned out to be 54 µM.
`N#Cc1cnn2c(=O)c([N+](=O)[O-])n[nH]c12` returned an IC50 in [2] of 61.1 µM.
Molecule `CCOc1ccc(S(=O)(=O)NC[C@@H](C)O)cc1-c1nnc2c(n1)c(C)nn2C` yielded an IC50 in data set [8] of 0.044 µM.
Turning to `Cc1nnc2n(NC(=S)NC3C4CC5CC(C4)CC3C5)c(C)nnc1-2` (centres undefined), the half-inhibitory concentration (IC50) in [7] was determined as 0.54 µM.
Same read-out and setting: next, `Cc1nnc2n(NC(=S)NC3CCCCCCC3)c(C)nnc1-2`: 0.81 µM.
The molecule `CCOc1ccc(S(=O)(=O)N[C@H](C)CO)cc1-c1nnc2c(n1)c(C)nn2C` showed a half-maximal inhibitory concentration (IC50) in [12] of 30.8 µM.
As to `O=c1cc2nc(-c3ccccc3)nc(SCCc3ccccc3)n2[nH]1`, the IC50 in data set [22] turned out to be 53 µM.
Turning to `Cc1ncc([N+](=O)[O-])n1CCO` [METRONIDAZOLE], the IC50 in data set [7] worked out at 1.81 µM.
Regarding `CCOC(=O)c1cnn2c(=O)c(C(=O)NC(C)(C)C)n[nH]c12`, half-maximal inhibition in data set [21] (IC50) required 48.1 µM.
With `Cc1ccc(Nc2nc(N)nc3cc(-c4ccccc4)nn23)cc1`, the IC50 in data set [1] amounted to 7.6 µM.
`CCOc1ccc(S(=O)(=O)NCCN)cc1-c1nnc2c(n1)c(C)nn2C` yielded an inhibition in [23] of 3.7%. In [24], the residual activity (as a rule, the activity still measured, relative to the control) is 96.3%.

The values above are taken from ChEMBL document CHEMBL5241085, “Pyrazolotriazines: Biological activities, synthetic strategies and recent developments” (Eur J Med Chem, 2021).
